From US6667306B1, “Platelet ADP receptor inhibitors” (Millennium Pharmaceuticals, Inc., priority 1998, dated 2003)
Where two headings read alike, the source gives them in different places.

How the values were obtained:
[1] = test system: ADP-induced human platelet aggregation; test: Inhibition of ADP-mediated platelet aggregation in vitro (96-well microtiter assay, washed platelets); format: cell-based; details: for IC50: Platelet
Protocol: The effect of test Compounds 1-8 of, respectively, Examples 1-8 on ADP-induced human platelet aggregation was assessed in 96-well microtiter assay. Human venous blood was collected from healthy, drug-free volunteers into ACD (85 mM sodium citrate, 111 mM glucose, […] citric acid) containing PGI2 (1.25 ml ACD containing 1.6 μM PGI2/10 ml blood; PGI2 was from Sigma, St. Louis, Mo.). Platelet-rich plasma (PRP) was prepared by centrifugation at 160×g for 20 minutes at room temperature. Washed platelets were prepared by centrifuging PRP for 10 minutes at 730×g and resuspending the platelet pellet in CGS (13 mM sodium citrate, 30 mM glucose, 120 mM NaCl; 2 ml CGS/10 ml original blood volume) containing 1 U/ml apyrase (grade V, Sigma, St. Louis, Mo.). After incubation at 37° C. for 15 minutes, the platelets were collected by centrifugation at 730×g for 10 minutes and resuspended at a concentration of 3×10^8 platelets/ml in Hepes-Tyrode's buffer (10 mM Hepes; 138 mM NaCl, 5.5 mM glucose, 2.9 mM KCl, 12 mM NaHCO3, pH 7.4) containing 0.1% bovine serum albumin, 1 mM CaCl2 and 1 mM MgCl2. This platelet suspension was kept >45 minutes at 37° C. before use in aggregation assays.
Inhibition of ADP-dependent aggregation was determined in 96-well flat-bottom microtiter plates using a microtiter plate shaker and plate reader similar to the procedure described by Frantantoni et al., Am. J. Clin. Pathol. 94, 613 (1990). All steps were performed at room temperature. The total reaction volume of 0.2 ml/well included in Hepes-Tyrodes buffer/0.1% BSA: 4.5×10^7 apyrase-washed platelets, 0.5 mg/ml human fibrinogen (American Diagnostica, Inc., Greenwich, Conn.), serial dilutions of test compounds (buffer for control wells) in 0.6% DMSO. After about 5 minutes preincubation at room temperature, ADP was added to a final concentration of 2 μM which induces submaximal aggregation. Buffer was added instead of ADP to one set of control wells (ADP^−control). The OD of the samples was then determined at 490 nm using a microtiter plate reader (Softmax, Molecular Devices, Menlo Park, Calif.) resulting in the 0 minute reading. The plates were then agitated for 5 min on a microtiter plate shaker and the 5 minute reading obtained in the plate reader. Aggregation was calculated from the decrease of OD at 490 nm at t=5 minutes compared to t=0 minutes and expressed as % of the decrease in the ADP control samples corrected for changes in the unaggregated control samples.
In some experiments, 0.3 mM 8-sulphophenyltheophylline (8-SPT, Sigma, St. Louis, Mo.) was added to the reaction to block any potential adenosine receptor activity of test compounds.

[2] = target: T1, human P2Y1 receptor (hP2Y1) (Homo sapiens, UniProt P47900); test: hP2Y1 receptor activity assay (2-MeS-ADP-induced intracellular calcium mobilization in hP2Y1-JA7 Jurkat cells); format: cell-based; details: 10^-7 M 2-MeS-ADP, read-out: IC50 on 2-MeS-ADP-mediated intracellular calcium mobilization
T1 construct: a genomic fragment encompassing the entire open reading frame of the human P2Y1 receptor; expressed in transfected cells; host or cells: Jurkat cells, clonal line hP2Y1-JA7, vector pcINeo
Protocol: Therefore, hP2Y1 receptor activity of test compounds was assessed by measuring agonist-induced intracellular calcium mobilization in a mammalian cell line expressing the cloned receptor gene.
For intracellular calcium measurements, cells were collected by centrifugation, washed and resuspended in Hepes-Tyrodes buffer/0.1% BSA/1 mM CaCl2 at 10^7 cells/ml at 37° C. Fura-2AM (Molecular Probes, Eugene, Oreg.) was added to 4 μM in the presence of 0.008% Pluronic F-27 (Molecular Probes, Eugene, Oreg.) and incubation continued for 30 minutes at 37° C. in the dark with gentle agitation. Cells were collected by centrifugation and incubated for 15 minutes at 37° C. in buffer with 1 U apyrase/ml. Cells were then centrifuged and resuspended at 4° C. and 2×10^6 cells/ml. […] Calcium responses were determined for the agonist 2-MeS-ADP (2-methylthioadenosine diphosphate, trisodium salt, RBI, Natick, Ma.) at the submaximal concentration of 10^−7M in the absence and presence of various concentrations of test compounds. Maximum ratios were determined after lysis of cells with 100 μM digitonin, minimum ratios after addition of 20 mM iris and 10 mM EGTA. […] Increases in intracellular calcium levels were determined by subtraction of baseline levels from peak calcium levels.

platelet ADP receptors = platelet ADP receptors (Homo sapiens, UniProt Q9H244); test: Inhibition of [^3H]2-MeS-ADP binding to platelets
Protocol: All steps were performed at room temperature unless indicated otherwise.

[3] = washed human platelets, 2 μM ADP, mean of 3-12 independent experiments in duplicate, read-out: IC50 Aggregation (inhibition of ADP-dependent platelet aggregation)
[4] = Homo sapiens, units given with the value (nM to μM), read-out: IC50s of ADP-dependent aggregation of human platelets, span over the series
[5] = outdated human platelets, 1 nM [^3H]2-MeS-ADP, mean of 2-8 independent experiments in duplicate

Chain of platelet ADP receptors (Q9H244 whole entry): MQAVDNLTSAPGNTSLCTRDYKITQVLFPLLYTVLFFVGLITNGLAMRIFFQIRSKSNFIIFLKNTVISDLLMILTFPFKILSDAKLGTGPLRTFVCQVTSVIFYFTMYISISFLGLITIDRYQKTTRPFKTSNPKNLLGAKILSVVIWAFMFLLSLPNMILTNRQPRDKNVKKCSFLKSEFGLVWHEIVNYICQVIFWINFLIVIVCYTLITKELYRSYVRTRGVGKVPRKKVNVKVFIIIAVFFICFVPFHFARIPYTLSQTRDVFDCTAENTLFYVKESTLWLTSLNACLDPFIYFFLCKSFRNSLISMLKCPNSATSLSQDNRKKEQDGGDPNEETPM
T1 sequence (P47900 whole entry, the tested form may be a part): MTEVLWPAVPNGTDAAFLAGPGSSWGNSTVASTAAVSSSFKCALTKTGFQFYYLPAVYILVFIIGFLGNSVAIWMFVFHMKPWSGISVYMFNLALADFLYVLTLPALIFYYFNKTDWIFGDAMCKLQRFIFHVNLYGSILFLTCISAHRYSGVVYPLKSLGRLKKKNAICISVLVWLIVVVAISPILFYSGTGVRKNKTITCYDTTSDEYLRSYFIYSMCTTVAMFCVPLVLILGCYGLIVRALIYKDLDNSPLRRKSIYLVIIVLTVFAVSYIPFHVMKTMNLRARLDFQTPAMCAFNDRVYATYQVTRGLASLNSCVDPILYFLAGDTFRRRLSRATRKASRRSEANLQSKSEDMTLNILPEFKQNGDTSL

SMILES | potency on ADP-dependent aggregation in the presence of 8-sulphophenyltheophylline ([1]; 0.3 mM 8-SPT (adenosine receptor antagonist) added) | IC50 ([1]; Homo sapiens, read-out: IC50s of ADP-dependent aggregation of human platelets, span over the series) [nM] | IC50 [1, 3] [nM] | IC50 [2] [µM] | IC50 (platelet ADP receptors) [µM] | IC50 [1, 4] [nM] | IC50 (platelet ADP receptors; [5]) [µM]
CCOc1ccc2c(c1)SC1=NS(=O)(=O)C(C(=O)CS(=O)(=O)Nc3nc4ccc(OCC)cc4s3)=C(O)N12 [Compound 1, N^1-(6-Ethoxy-1,3-benzothiazol-2-yl)-2-(8-ethoxy-4-hydroxy-2,2-dioxo-2H-2l^6-benzo[4,5][1,3]thiazolo[2,3-c][1,2,4]thiadiazin-3-yl)-2-oxo-1-ethanesulfonamide] | not reduced | ≥ 180 | 180 | > 100 | 0.17 | – | –
O=C(CS(=O)(=O)Nc1nc2ccccc2s1)C1=C(O)N2C(=NS1(=O)=O)Sc1ccccc12 [Compound 2, N^1-(1,3-benzothiazol-2-yl)-2-(4-hydroxy-2,2-dioxo-2H-2l^6-benzo[4,5][1,3]thiazolo[2,3-c][1,2,4]thiadiazin-3-yl)-2-oxo-1-ethanesulfonamide] | – | – | 26000 | – | – | ≥ 180 | –
Cc1ccc2c(c1)SC1=NS(=O)(=O)C(C(=O)CS(=O)(=O)Nc3nc4ccc(C)cc4s3)=C(O)N12 [Compound 3, N^1-(6-Methyl-13-benzothiazol-2-yl)-2-(8-methyl-4-hydroxy-2,2-dioxo-2H-2l^6-benzo[4,5][1,3]thiazolo[2,3-c][1,2,4]thiadiazin-3-yl)-2-oxo-1-ethanesulfonamide] | – | – | 9500 | – | – | ≥ 180 | 22
O=C(CS(=O)(=O)Nc1nc2ccc(Cl)cc2s1)C1=C(O)N2C(=NS1(=O)=O)Sc1cc(Cl)ccc12 [Compound 4, N^1-(6-Chloro-1,3-benzothiazol-2-yl)-2-(8-chloro-4-hydroxy-2,2-dioxo-2H-2l^6-benzo[4,5][1,3]thiazolo[2,3-c][1,2,4]thiadiazin-3-yl)-2-oxo-1-ethanesulfonamide] | – | – | 64000 | – | – | ≥ 180 | –
CS(=O)(=O)c1ccc2c(c1)SC1=NS(=O)(=O)C(C(=O)CS(=O)(=O)Nc3nc4ccc(S(C)(=O)=O)cc4s3)=C(O)N12 [Compound 5, N^1-(6-Methylsulfonyl-1,3-benzothiazol-2-yl)-2-(8-methylsulfonyl-4-hydroxy-2,2-dioxo-2H-2l^6-benzo[4,5][1,3]thiazolo[2,3-c][1,2,4]thiadiazin-3-yl)-2-oxo-1-ethanesulfonamide] | – | – | 700 | – | – | ≥ 180 | –
O=C(CS(=O)(=O)Nc1nc2ccc([N+](=O)[O-])cc2s1)C1=C(O)N2C(=NS1(=O)=O)Sc1cc([N+](=O)[O-])ccc12 [Compound 6, N^1-(6-Nitro-1,3-benzothiazol-2-yl)-2-(8-nitro-4-hydroxy-2,2-dioxo2H-2l^6-benzo[4,5][1,3]thiazolo[2,3-c][1,2,4]thiadiazin-3-yl)-2-oxo-1-ethanesulfonamide] | – | – | 50000 | – | – | ≥ 180 | –
O=C(CS(=O)(=O)Nc1nc2ccc(F)cc2s1)C1=C(O)N2C(=NS1(=O)=O)Sc1cc(F)ccc12 [Compound 7, N^1-(6-Fluoro-1,3-benzothiazol-2-yl)-2-(8-fluoro-4-hydroxy-2,2-dioxo-2H-2l^6-benzo[4,5][1,3]thiazolo[2,3-c][1,2,4]thiadiazin-3-yl)-2-oxo-1-ethanesulfonamide] | – | – | > 120000 | – | – | ≥ 180 | –
COc1ccc2c(c1)SC1=NS(=O)(=O)C(C(=O)CS(=O)(=O)Nc3nc4ccc(OC)cc4s3)=C(O)N12 [Compound 8, N^1-(6-Methoxy-1,3-benzothiazol-2-yl)-2-(8-methoxy-4-hydroxy-2,2-dioxo-2H-2l^6-benzo[4,5][1,3]thiazolo[2,3-c][1,2,4]thiadiazin-3-yl)-2-oxo-1-ethanesulfonamide] | – | – | 1500 | – | – | ≥ 180 | 0.8
